# In patent US4885284A, “Dihydropyridine-5-phosphonic acid cyclic propylene ester” (Nissan Chemical Industries Ltd., priority 1986, dated 1989):
# Counter-ions that a name gives are not always drawn.
# Columns and labels:
# [1] = Acute toxicity test (oral LD50); settings: mouse, in vivo; oral (5% solution), male ddY mice, seven days, Litchfield-Wilcoxon
# Description: ddY mice (.male., 4 weeks old) were divided into groups of five mice and the test compound dissolved in purified water was administered orally (5% solution) (p.o) to the male ddY mice.
# After seven days, LD50 values were calculated from the dead […] recorded in the individual dosage groups by the method of Litchfield-Wilcoxon.
# [2] = system: taenia caecum of guinea pig; test: Calcium antagonistic effect (relaxation of CaCl2-induced contraction in K+-depolarized taenia caecum); format: cell-based; settings: Cavia porcellus; -log ID50 (M); 50% relaxation relative to maximum relaxation by 10^-4 M papaverine; 37° C, 10 mM CaCl2; read-out: pID50 (calcium antagonistic effect) (converted)
# Description: 10 mm in situ length of taenia caecum of guinea pig was suspended at a tension of 1 g in a 20 ml organ bath filled with a physiological salt solution (NaCl: 135 mM, KCl: 5 mM etc.).
# This solution was bubbled with a gas mixture of 95% O2 -5% CO2 and kept at 37° C. Then, the preparation was depolarized by a K^+ rich solution (NaCl: 40 mM, KCl: 100 mM). After 10-20 minutes equilibration period, 10 mM of CaCl2 was added to the bathing solution. The contraction was produced, and then the test compound applied cumulatively. The relaxation produced was expressed as percentage of the maximum relaxation produced by 10^-4 M papaverine, and the concentration of the compound producing 50% relaxation, i.e. ID50 (M), was calculated.
# [3] = system: male spontaneously hypertensive rat (SHR); test: Antihypertensive effect (systolic blood pressure, tail cuff method, oral, SHR); format: in vivo; settings: systolic blood pressure at 2, 4, 6 and 8 hours
# Description: After oral administration of the test compound dissolved in a H2 O-PEG 400 solvent mixture (H2 O:PEG 400 (w/w)=1:3) to the male spontaneously hypertensive rat (SHR), the systolic blood pressure was measured at 2, 4, 6 and 8 hours after the administration of the test compounds by a tail cuff method. Prior to the measurement, rats were warmed at 50° C. for five minutes. The effectively antihypertensive activities were observed also at 8 hours after the administraton of the test compounds. Test 2: Acute toxicity test
SMILES,LD50 at 168 h [1],IC50 [2],"Antihypertensive effect, maximum decrease ([3]; dose 15 mg/kg)","Antihypertensive effect, maximum decrease ([3]; dose 10 mg/kg)","Antihypertensive effect, maximum decrease ([3]; dose 20 mg/kg)"
CC1=C(C(=O)OCCN(Cc2ccccc2)c2ccccc2)C(c2cccc([N+](=O)[O-])c2)C(P2(=O)O[C@H](C)C[C@@H](C)O2)=C(C)N1 (some centres unmarked) [Hydrochloride of Example 7],> 600 mg/kg,6.76e-09 M,34%,,
CC1=C(C(=O)OCCN2CCN(C(c3ccccc3)c3ccccc3)CC2)C(c2cccc(Cl)c2Cl)C(P2(=O)OCC(C)(C)CO2)=C(C)N1 (centres unmarked) [Dihydrochloride of Example 2],> 400 mg/kg,9.77e-08 M,,37%,
CC1=C(C(=O)OC(C)CN(Cc2ccccc2)c2ccccc2)C(c2cccc([N+](=O)[O-])c2)C(P2(=O)OC(C)(C)CC(C)(C)O2)=C(C)N1 (centres unmarked) [Hydrochloride of Example 4],> 300 mg/kg,1.26e-07 M,,,38%
CC1=C(C(=O)OCCN(Cc2ccccc2)c2ccccc2)C(c2cccc([N+](=O)[O-])c2)C(P2(=O)OCC(C)(C)CO2)=C(C)N1 (centres unmarked) [Hydrochloride of Example 1],> 600 mg/kg,6.76e-09 M,36%,,
CC1=C(C(=O)OCCCN2CCN(C(c3ccc(F)cc3)c3ccc(F)cc3)CC2)C(c2cccc(Cl)c2Cl)C(P2(=O)OCC(C)(C)CO2)=C(C)N1 (centres unmarked) [Dihydrochloride of Example 3],> 400 mg/kg,1.74e-07 M,36%,,
CC1=C(C(=O)OCCN(Cc2ccccc2)c2ccccc2)C(c2cccc([N+](=O)[O-])c2)C(P2(=O)OC(C)(C)CC(C)(C)O2)=C(C)N1 (centres unmarked) [Hydrochloride of Example 5],> 300 mg/kg,,,40%,
CC1=C(C(=O)OC(C)CN(Cc2ccccc2)c2ccccc2)C(c2cccc(Cl)c2Cl)C(P2(=O)O[C@H](C)C[C@@H](C)O2)=C(C)N1 (some centres unmarked) [Hydrochloride of Example 6],> 300 mg/kg,1.05e-07 M,,28%,
